The values below come from patent US4272437A, “Antibacterial agents, and 4-thio azetidinone intermediates” (priority 1979, dated 1981).

Converted amounts (≈) assume the structure as drawn. Structures can show the parent of a compound that is named as a salt. Where two headings read alike, the source gives them in different places. Bounds are passed on as bounds.

Test [1] relates to Ser. marcescens A-20019. As to the kind of experiment: MIC, tube dilution, Serratia marcescens A20019. Format: cell-based. The settings on record: Serratia marcescens, A20019, Serratia marcescens A20019; overnight 37° C.; read-out: Minimum Inhibitory Concentration (M.I.C.). The text has this: (§1) Representative compounds of the present invention were subjected to in vitro antibiotic screening against a variety of microorganisms.

Test [2] has as its system Staph. aureus A-9537 and 50% serum. In words: MIC, tube dilution, Staph. aureus A9537 + 50% serum. The settings on record: Staphylococcus aureus, overnight 37° C., read-out: Minimum Inhibitory Concentration (M.I.C.). Format: cell-based, Staphylococcus aureus.
Source text: as §1

Test [3] deals with Pr. morganii A-15153. In words: MIC, tube dilution, Proteus morganii A15153. The settings on record: Morganella morganii, A15153, Proteus morganii A15153; overnight 37° C.; read-out: Minimum Inhibitory Concentration (M.I.C.). Format: cell-based.
Source text: as §1

Test [4] relates to E. coli A-15119. In words: MIC, tube dilution, Escherichia coli A15119. Particulars: Escherichia coli, A15119, E. coli A15119; overnight 37° C.; read-out: Minimum Inhibitory Concentration (M.I.C.). Format: cell-based.
Source text: as §1

Test [5] concerns Ent. cloacae A-9659. As to the kind of experiment: MIC, tube dilution, Enterobacter cloacae A9659. The class given is cell-based. Particulars: Enterobacter cloacae, A9659, Enterobacter cloacae A9659; overnight 37° C.; read-out: Minimum Inhibitory Concentration (M.I.C.).
Source text: as §1

The subject of test [6] is Staph. aureus (Meth-Res) A-15097. In words: MIC, tube dilution, Staphylococcus aureus A15097 (Meth-Res). Format: cell-based. Particulars: Staphylococcus aureus, overnight 37° C.
Source text: as §1

Test [7] relates to Staph. aureus A-9537. In words: MIC, tube dilution, Staphylococcus aureus A9537. The class given is cell-based. The settings on record: Staphylococcus aureus, A9537, Staph. aureus A9537; overnight 37° C., Nutrient Broth; read-out: Minimum Inhibitory Concentration (M.I.C.).
Source text: as §1

Test [8] has as its system Str. pyogenes A-9604. As to the kind of experiment: MIC, tube dilution, Streptococcus pyogenes A9604. Format: cell-based. Particulars: Streptococcus pyogenes, A9604, Str. pyogenes A9604; overnight 37° C., Nutrient Broth; read-out: Minimum Inhibitory Concentration (M.I.C.).
Source text: as §1

For test [9], the system named is Proteus vulgaris A9555. As to the kind of experiment: MIC, tube dilution, Proteus vulgaris (mirabilis) A9555. The class given is cell-based. Particulars: overnight 37° C., read-out: Minimum Inhibitory Concentration (M.I.C.).
Source text: as §1

The test system of test [10] is Str. pneumoniae A-9585. As to the kind of experiment: MIC, tube dilution, Streptococcus pneumoniae A9585. Particulars: Streptococcus pneumoniae, A9585, Str. pneumoniae A9585; overnight 37° C., Nutrient Broth; read-out: Minimum Inhibitory Concentration (M.I.C.). Format: cell-based.
Source text: as §1

The test system of test [11] is Ps. aeruginosa A-21213. In words: MIC, tube dilution, Pseudomonas aeruginosa A21213. The class given is cell-based. Particulars: Pseudomonas aeruginosa A21213; overnight 37° C.; read-out: Minimum Inhibitory Concentration (M.I.C.).
Source text: as §1

Test [12] deals with Klebsiella species A20468. As to the kind of experiment: MIC, tube dilution, Klebsiella species A20468. Format: cell-based. The settings on record: Klebsiella species (K. pneumoniae) A20468; overnight 37° C.; read-out: Minimum Inhibitory Concentration (M.I.C.).
Source text: as §1

Test [13] concerns E. coli A-20341-1. As to the kind of experiment: MIC, tube dilution, Escherichia coli A20341-1. The class given is cell-based.
Source text: as §1

In test [14] the test system is Ent. cloacae A-9656. As to the kind of experiment: MIC, tube dilution, Enterobacter cloacae A9656. The class given is cell-based. Particulars: overnight 37° C., read-out: Minimum Inhibitory Concentration (M.I.C.).
Source text: as §1

In test [15] the test system is K. pneumoniae A-15130. As to the kind of experiment: MIC, tube dilution, Klebsiella pneumoniae A15130. The class given is cell-based. The settings on record: Klebsiella pneumoniae, A15130, K. pneumoniae A15130; overnight 37° C.; read-out: Minimum Inhibitory Concentration (M.I.C.).
Source text: as §1

Test [16] relates to Ps. aeruginosa A-9843A. As to the kind of experiment: MIC, tube dilution, Pseudomonas aeruginosa A9843A. Format: cell-based. The settings on record: Pseudomonas aeruginosa, A9843A, read-out: Minimum Inhibitory Concentration (M.I.C.), Pseudomonas aeruginosa A9843A; overnight 37° C.
Source text: as §1

The test system of test [17] is Proteus rettgeri A21203. In words: MIC, tube dilution, Proteus rettgeri A21203. Format: cell-based. The settings on record: Providencia rettgeri, overnight 37° C., read-out: Minimum Inhibitory Concentration (M.I.C.).
Source text: as §1

The test system of test [18] is Staph. aureus (Pen-Res) A-9606. As to the kind of experiment: MIC, tube dilution, Staphylococcus aureus A9606 (Pen-Res). The class given is cell-based. The settings on record: Staphylococcus aureus, overnight 37° C.
Source text: as §1

Test [19] has as its system Pr. mirabilis A-9900. In words: MIC, tube dilution, Proteus mirabilis A9900. Format: cell-based. The settings on record: Proteus mirabilis, A9900, Proteus mirabilis A9900; overnight 37° C.; read-out: Minimum Inhibitory Concentration (M.I.C.).
Source text: as §1

In test [20] the test system is Str. faecalis A-20688. As to the kind of experiment: MIC, tube dilution, Streptococcus faecalis A20688. Format: cell-based. Particulars: Enterococcus faecalis, A20688, Str. faecalis A20688; overnight 37° C.; read-out: Minimum Inhibitory Concentration (M.I.C.).
Source text: as §1

Setting [21] is: Staph. aureus A15097 (Meth-Res), read-out: Minimum Inhibitory Concentration (M.I.C.).
Where [22] appears, read: Escherichia coli, A203411; E. coli A20341-1; overnight 37° C.; read-out: Minimum Inhibitory Concentration (M.I.C.).
Setting [23] is: A21203, Proteus rettgeri A21203.
The mark [24] stands for this setting: Staph. aureus A9606 (Pen-Res), read-out: Minimum Inhibitory Concentration (M.I.C.).
Setting [25] is: Escherichia coli, A203411, E. coli A20341-1; overnight 37° C.; read-out: Minimum Inhibitory Concentration (M.I.C.).
Where [26] appears, read: Enterobacter cloacae, A9656, Enterobacter cloacae A9656.

Take `CC1=C(C(=O)O)N2C(=O)[C@H](C(C)(C)O)[C@H]2S1` (relative stereo) [Example 32, trans 6-(2'-Hydroxy-2'-propyl)-2-methylpenem-3-carboxylic Acid]: the MIC was found to be 63 µg/mL (≈ 259 µM) in [1]; 32 µg/mL in [2]; 125 µg/mL (≈ 514 µM) in test [3]; 63 µg/mL (≈ 259 µM) in [4]; 125 µg/mL (≈ 514 µM) in [5]; 63 µg/mL (≈ 259 µM) in [6] (setting [21]). The MIC in test [7] was 8 µg/mL (≈ 32.9 µM); in [8] it was 8 µg/mL (≈ 32.9 µM); in test [9], 125 µg/mL (≈ 514 µM); in test [10], 0.25 µg/mL (≈ 1.03 µM); in [11], 125 µg/mL (≈ 514 µM); in test [12], greater than 125 µg/mL. Also, the MIC in [13] (setting [22]) was greater than 125 µg/mL; in test [14] (Enterobacter cloacae A9656), 125 µg/mL (≈ 514 µM); in test [15], 125 µg/mL (≈ 514 µM); in test [16] it was 125 µg/mL (≈ 514 µM); in test [17] (setting [23]), 63 µg/mL (≈ 259 µM); in test [18] (setting [24]), 16 µg/mL (≈ 65.8 µM). Also, the MIC was 63 µg/mL (≈ 259 µM) in test [19] and greater than 125 µg/mL in test [20].

On to `CC1=C(C(=O)O)N2C(=O)[C@@H]([C@@H](C)O)[C@H]2S1` (relative stereo) [Example 34, cis 6-(1'-Hydroxy-1'-ethyl)-2-methylpenem-3-carboxylic Acid, Sodium Salt (isomer "D")], for which the MIC in [1] came to 32 µg/mL; in test [2], 63 µg/mL; in test [3], 32 µg/mL; in [4], 4 µg/mL; in [5], 32 µg/mL; in test [6] (setting [21]), 16 µg/mL. Moreover, the MIC amounted to 4 µg/mL in test [7]; 2 µg/mL in test [8]; 16 µg/mL in test [9]; 0.25 µg/mL in test [10]; 125 µg/mL in test [11]; 125 µg/mL in test [12]. In addition, the MIC turned out to be 16 µg/mL in [13] (setting [25]); 63 µg/mL in test [14] (setting [26]); 32 µg/mL in test [15]; 125 µg/mL in test [16]; 32 µg/mL in test [17] (setting [23]); 4 µg/mL in [18] (setting [24]). For the same compound, the MIC in test [19] was 16 µg/mL; in test [20], 125 µg/mL.

Take `CC1=C(C(=O)O)N2C(=O)[C@@H](CO)[C@H]2S1` (relative stereo) [Example 68, trans 6-Hydroxymethyl-2-methylpenem-3-carboxylic Acid]: the MIC in test [1] is 63 µg/mL (≈ 293 µM); in [2], greater than 63 µg/mL; in test [3], 125 µg/mL (≈ 581 µM); in [4] it was 63 µg/mL (≈ 293 µM); in test [5] it was 63 µg/mL (≈ 293 µM); in test [6] (setting [21]) it was 63 µg/mL (≈ 293 µM). Further, the MIC was found to be 16 µg/mL (≈ 74.3 µM) in test [7]; 16 µg/mL (≈ 74.3 µM) in test [8]; 63 µg/mL (≈ 293 µM) in [9]; 4 µg/mL (≈ 18.6 µM) in [10]; 125 µg/mL (≈ 581 µM) in test [11]; 125 µg/mL (≈ 581 µM) in [12]. Also, the MIC in [13] (setting [25]) amounted to 63 µg/mL (≈ 293 µM); in test [14] (setting [26]), 63 µg/mL (≈ 293 µM); in test [15] it was 63 µg/mL (≈ 293 µM); in test [16], 125 µg/mL (≈ 581 µM); in test [17] (setting [23]), 63 µg/mL (≈ 293 µM); in test [18] (setting [24]), 63 µg/mL (≈ 293 µM). The values for the MIC in [19] and in test [20] were 63 µg/mL (≈ 293 µM) and 125 µg/mL (≈ 581 µM), respectively.

`O=C([O-])C1=C(c2cccnc2)S[C@@H]2CC(=O)N12.[Na+]` [Example 53, Sodium 2-(3-Pyridyl)penem-3-carboxylate]: the MIC in [1] was 8 µg/mL; in test [2], greater than 63 µg/mL; in test [3] it was 8 µg/mL; in test [4], 2 µg/mL; in test [5], 16 µg/mL; in test [6] (read-out: Minimum Inhibitory Concentration (M.I.C.), Staph. aureus A15097 (Meth-Res)), 16 µg/mL. Moreover, the MIC in test [7] was 1 µg/mL; in [8] it was 0.13 µg/mL; in test [9], 2 µg/mL; in test [10], 0.06 µg/mL; in test [11], 125 µg/mL; in test [12], greater than 125 µg/mL. Also, the MIC turned out to be 63 µg/mL in test [13] (setting [22]); 32 µg/mL in test [14] (Enterobacter cloacae A9656); 16 µg/mL in [15]; 125 µg/mL in [16]; 2 µg/mL in [17] (Proteus rettgeri A21203); 8 µg/mL in test [18] (read-out: Minimum Inhibitory Concentration (M.I.C.), Staph. aureus A9606 (Pen-Res)). The figures for the MIC in [19] and in test [20] were 2 µg/mL and 8 µg/mL, respectively.
